Reference: US10857105B2, “Compounds and compositions for intracellular delivery of therapeutic agents” (ModernaTX, Inc., priority 2017, dated 2020)

Tests used:
modified luciferase = assay: Luciferase expression in liver, lung, spleen and femur 6 hours after intravenous administration to mice; format: in vivo; details: 6 hours after intravenous 0.5 mpk, mice
In short: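 Mice (n=3) got a single 0.5 mpk IV dose of each nanoparticle composition, with MC3 and PBS controls alongside. Organ luminescence flux was read 6 h post-dose.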

IL-6, IP-10 = assay: Cytokine induction (IL-6, IP-10) in mice 6 hours after intravenous administration; format: in vivo; parameters: unit not given here; details: intravenous 0.5 mpk
In short: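 IL-6 and IP-10 concentrations determined 6 hours after a single intravenous 0.5 mpk dose of lipid nanoparticle formulation in mice, with MC3 and PBS as comparators.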

hEPO mRNA [1] = assay: hEPO expression and cytokine induction after intravenous administration to mice; format: in vivo; details: mice
Description: FIG. 17 is a graph showing the hEPO mRNA expression in CD1-mice measured 3 h (left block), 6 h (middle block) and 24 h (right block) after intravenous administration of various nanoparticle compositions. Numbers 1-13 refer to compositions containing an mRNA expressing hEPO and the following: 1: Compound 147, 2: Compound 184, 3: Compound 232; 4: Compound 189; 5: Compound 200; 6: Compound 233; 7: Compound 234; 8: Compound 235; 9: Compound 237; 10: Compound 239; 11: Compound 243; 12: MC3; 13: PBS. […]
Sample formulations of nanoparticle compositions including different lipids are generally first evaluated according to Luc expression in vivo. The activity of several such compositions was further evaluated using an mRNA encoding hEPO. Nanoparticle compositions including Compounds 6, 18, 25, 30, 108-112, 60, and 122, or MC3 were prepared according to Example 2.
(§1) The expression of hEPO and cytokine induction in mice intravenously administered a nanoparticle composition at a dose of 0.5 mpk were measured at 3, 6, and 24 hours. […] The expression of hEPO in mice intramuscularly administered a nanoparticle composition from Table 1B at a dose of 0.01 mpk were measured at 3, 6, and 24 hours. […] (see
Table 12 compares the nanoparticle compositions including compounds according to Formula (I), (IA), (IB), (II), (IIa), (IIb), (IIc), (IId), (IIe), (IIf), (IIg), or (III) to the compositions including MC3 on the basis of expression and flux levels. […] Thus, these lipids may be useful in nanoparticle composition therapeutics.

CD-1 mice = assay: Luciferase expression after intravenous delivery of luciferase mRNA LNPs (bioluminescent imaging); format: in vivo; details: intravenous 0.5 mg/kg mRNA dose
Description: Whole body and ex vivo organ bioluminescent imaging of mice: CD-1 mice were injected 15 minutes prior to the imaging timepoint intraperitoneally (IP) with 200 μL Xenolight D-luciferin K+ salt, diluted in PBS just prior to use to a concentration of 15 mg/mL. Ex vivo imaging of organs was completed, within 25 minutes of luciferin administration. All images were quantified by region of interest for total flux.
[…] […] (See Semple, S.C. et al., Nature Biotech. 2010. 28, 172-176, Jayaraman, M., et al. Angew. Chem. Int. Ed. 2012, 51, 8529-8533, the entire contents of each of which are incorporated by reference herein in their entireties). To evaluate the efficiency of the new amino lipids, LNPs using the novel compounds were tested in vivo in mice using luciferase mRNA as a reporter. An MC3 LNP was included as a control in each experiment, enabling the comparison of LNPs from experiment to experiment. Measured luciferase activity also enabled the determination of protein bio-distribution.

[2] = Chemical stability of lipids in ethanol at room temperature and 37° C. (lipid purity); format: physicochemical
Description: Ester linkages were previously reported to trigger metabolism by esterases in vivo. (See Fukami, T. et al. Drug Metab. Pharmacokinet. 2012, 27, 466-477, the content of which is incorporated by reference herein in its entirety). […] (See Maier M. A., Mol. Ther. 2013, 21, 1570-1578, the content of which is incorporated herein in its entirety) First, the chemical stability of the lipids was evaluated by measuring ethanol stability at room temperature and 37° C. (Table 39). […] LNPs formed with compound 138 were larger, with a surface pKa>7. […] Removal of one ester function (compound 136) afforded LNPs with improved physiochemical characteristics and lower LNP surface pKa.

[3] = Particle size and polydispersity index of nanoparticle compositions (Zetasizer Nano ZS); format: physicochemical
In short: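 Formulations of ionizable lipid, DSPC, cholesterol and PEG-DMG (50:10:38.5:1.5 mol %) carrying Luc or hEPO mRNA with all uridines as N1-methyl pseudouridine. Dynamic light scattering in 1×PBS gave particle size and polydispersity; zeta potential read in 15 mM PBS.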

[4] = Encapsulation efficiency of RNA in nanoparticle compositions (RIBOGREEN assay); format: physicochemical
In short: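 Lipid nanoparticles (ionisable lipid:DSPC:cholesterol:PEG-DMG 50:10:38.5:1.5 mol %) carrying N1-methylpseudouridine luciferase or hEPO mRNA diluted to about 5 μg/mL in TE, pH 7.5, with or without 2% Triton X-100, 15 min at 37° C. RiboGreen fluorescence (ex ~480, em ~520 nm) blank-subtracted; free RNA = intact/disrupted signal.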

luciferase (Luc) mRNA [5] = assay: Luciferase expression (whole body bioluminescence) after intravenous administration to mice; format: in vivo; details: intravenous, luciferase; for Novel lipid/MC3 ratio, i.v.: Table 3G, 6 hr. timepoint, relative to MC3; for Novel lipid/MC3 expression ratio, i.v.: 6 hr. time point, relative to MC3 formulation
In short: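 Luc mRNA nanoparticles were given IV at 0.5 mg/kg to groups of six mice, and whole-body bioluminescent flux was imaged 3, 6 and 24 h post-dose. Flux AUC for each lipid formulation was reported as a ratio to the MC3 reference formulation.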

[6] = test system: modified luciferase (Luc) mRNA and H10 mRNA; assay: Expression after intramuscular administration of formulations including Luc mRNA and H10 mRNA; format: in vivo
Description: Sample formulations including both modified luciferase (Luc) mRNA and H10 mRNA were prepared and administered intramuscularly and the resulting expression and immunogenicity were evaluated simultaneously. Formulations including compounds according to Formula (I), (IA), (IB), (II), (IIa), (IIb), (IIc), (IId), (IIe), (IIf), (IIg), or (III) were prepared and administered at doses of 0.001 and 0.01 mpk (e.g., doses of 0.0005 mpk of a formulation including Luc mRNA and a formulation including H10 mRNA or doses of 0.005 mpk of a formulation including Luc mRNA and a formulation including H10 mRNA).
The fluxes measured upon intravenous and intramuscular administration are compared in Table 6. Fluxes are presented as fold increase over that measured for MC3 formulations.

luciferase (Luc) mRNA [7] = assay: Luciferase expression after intramuscular administration to mice; format: in vivo; details: intramuscular; for Total flux 6 hours after intramuscular administration, 0.01 mpk Dose: Luc mRNA
Description: The numbers 1-7 in this figure correspond to MC3, Compounds 168-170, and 173-175 respectively.
FIGS. 18A and 18B show the results of luciferase expression measured upon intramuscular administration of various nanoparticle compositions to CD-1 mice at 0.01 mpk. FIG. 18A is a bar graph showing total flux at 6 hr after administration. The numbers above each bar indicate the expression ratio relative to MC3. […] Numbers 1-11 in the Figures refer to compositions containing the following: 1: MC3, 2: Compound 143, 3: Compound 49; 4: Compound 113; 5: Compound 61; 6: Compound 72; 7: Compound 75; 8: Compound 71; 9: Compound 128; 10: Compound 156; 11: Compound 157.
The numbers 1-9 in this figure correspond to MC3, and Compounds 178, 181, 182, 218, 198, 200, 233, and 239, respectively.
The total flux (measured by area under the curve, AUC) induced by administration of a formulation including a given lipid relative to that induced by administration of a formulation including MC3 was also measured for several lipids.
Sample formulations including modified luciferase (Luc) mRNA prepared and administered intramuscularly and the resulting expression and immunogenicity were evaluated simultaneously. Formulations including compounds according to Formula (I), (IA), (IB), (II), (IIa), (IIb), (IIc), (IId), (IIe), (IIf), (IIg), or (III) were prepared and administered at dose of and 0.01 mpk.

hEPO mRNA [8] = assay: hEPO expression after intramuscular administration to mice; format: in vivo; details: intramuscular, hEPO; for Novel lipid/MC3 ratio, i.m. hEPO: Table 3G, 6 hr. timepoint, relative to MC3
Description: The numbers 1-11 in this figure correspond to MC3, Compounds 18, 25, 30, 108-112, 60, and 122 respectively.
as §1

[9] = Table 1A, lipid:DSPC:cholesterol:PEG-DMG 50:10:38.5:1.5 mol %
[10] = Table 1C, compositions for subcutaneous administration
[11] = Table 1B, formulated with hEPO mRNA

Size [3, 9] [nm]	Size [3, 10] [nm]	Size [3, 11] [nm]	EE [4, 11] [%]	SMILES	Total Flux, Femur (modified luciferase)	Total Flux, Liver (modified luciferase)	Total Flux, Lung (modified luciferase)	Total Flux, Spleen (modified luciferase)	Cytokine induction, IL-6 (IL-6, IP-10)	Cytokine induction, IP-10 (IL-6, IP-10)	EE [4, 9] [%]	Novel lipid/MC3 ratio, i.v. (luciferase (Luc) mRNA [5])	Novel lipid/MC3 expression ratio, i.v. (luciferase (Luc) mRNA [5])	Total flux 6 hours after intramuscular administration, 0.01 mpk Dose (luciferase (Luc) mRNA [7]) [p/s]	Novel lipid/MC3 ratio, i.m. hEPO (hEPO mRNA [8])	further results
83.7	83.7	60.6	96.40	CCCCCCCCCOC(=O)CCCCCCCN(CCCCCCCC(=O)OC(CCCCCCCC)CCCCCCCC)CCCNC(=O)NC [Compound 112, Heptadecan-9-yl 8-((3-(3-methylureido)propyl)(8-(nonyloxy)-8-oxooctyl)amino)octanoate]	–	1.48E+08	1.83E+06	2.75E+07	–	–	–	0.08	0.08	9.47E+07	1.6	–
102.3	–	–	–	CCCCCCCCCOC(=O)CCCCCCCN(CCCCCCCC(=O)OC(CCCCCCCC)CCCCCCCC)CCCN/C(=N/C#N)N(C)C [Compound 168, Heptadecan-9-yl (Z)-8-((3-(2-cyano-3,3-dimethylguanidino)propyl)(8-(nonyloxy)-8-oxooctyl)amino)octanoate]	–	–	–	–	–	–	91.4	–	0.11	–	–	Size ([3]; Table 1D, compositions for subcutaneous administration, # formulated with hEPO mRNA): 87.4 nm; Size ([3]; Table 1E, compositions for subcutaneous administration): 85.0 nm; Novel lipid/MC3 expression ratio, i.m. Luc (luciferase (Luc) mRNA [7]; luciferase, 6 hr. time point, relative to MC3 formulation): 16.0; Novel lipid/MC3 expression ratio, i.m. hEPO (hEPO mRNA [8]; 6 hr. time point, relative to MC3 formulation): 6.3

Second part, the compound before the results:

SMILES	Size [3, 9] [nm]	Size [3, 10] [nm]	Size [3, 11] [nm]	EE [4, 11] [%]	Total Flux, Femur (modified luciferase)	Total Flux, Liver (modified luciferase)	Total Flux, Lung (modified luciferase)	Total Flux, Spleen (modified luciferase)	Cytokine induction, IL-6 (IL-6, IP-10)	Cytokine induction, IP-10 (IL-6, IP-10)	EE [4, 9] [%]	Novel lipid/MC3 ratio, i.v. (luciferase (Luc) mRNA [5])	Novel lipid/MC3 expression ratio, i.v. (luciferase (Luc) mRNA [5])	Total flux 6 hours after intramuscular administration, 0.01 mpk Dose (luciferase (Luc) mRNA [7]) [p/s]	Novel lipid/MC3 ratio, i.m. hEPO (hEPO mRNA [8])	further results
CCCCC/C=C\C/C=C\CCCCCCCCN(CCO)CCCCCCCC(=O)OC(CCCCCCCC)CCCCCCCC [Compound 6, Heptadecan-9-yl 8-((2-hydroxyethyl)((9Z,12Z)-octadeca-9,12-dien-1-yl)amino)octanoate]	–	–	–	–	2.15E+06	1.09E+09	4.30E+06	3.03E+07	136.18	316.01	–	–	–	–	–	hEPO expression, 3 h (hEPO mRNA [1]; intravenous 0.5 mpk, 3 h): 2.31e+06 pg/mL; Cytokine expression, IL-6 (6 h) (hEPO mRNA [1]; intravenous 0.5 mpk, 6 h): 10.15 pg/mL; Cytokine expression, IP-10 (6 h) (hEPO mRNA [1]; intravenous 0.5 mpk, 6 h): 116.66 pg/mL; hEPO expression, 6 h (hEPO mRNA [1]; intravenous 0.5 mpk, 6 h): 3.17e+06 pg/mL; hEPO expression, 24 h (hEPO mRNA [1]; intravenous 0.5 mpk, 24 h): 1.11e+06 pg/mL; hEPO concentrations compared with MC3 formulations (hEPO mRNA [1]; intravenous, 0.5 mpk, 3, 6 and 24 hours): higher hEPO concentrations than MC3 formulations at each time point; luciferase activity/expression compared to MC3 LNP control (words) (CD-1 mice): Equivalent expression to MC3 LNPs; Lipid Purity, t = 96 h, 25° C. ([2]; 96 h, 25° C.): 93.21%; Lipid Purity, t = 96 h, 37° C. ([2]; 96 h, 37° C.): 94.29%; Lipid Purity, t = 0 ([2]; t = 0): 93.80%
CCCCCCCCCOC(=O)CCCCCCCN(CCCCO)CCCCCCCC(=O)OC(CCCCCCCC)CCCCCCCC [Compound 20, Heptadecan-9-yl 8-((4-hydroxybutyl)(8-(nonyloxy)-8-oxooctyl)amino) octanoate]	86.7	86.7	–	–	1.31E+07	1.84E+09	2.66E+07	1.43E+08	126.83	2468.24	96.72	0.80	0.80	–	–	Expression upon intramuscular administration ([6]; doses of 0.001 and 0.01 mpk, 6 hours): highest expression at both dose levels; Fold increase in Luc expression over MC3 upon intramuscular administration ([6]; intramuscular): highest fold increase
CCCCCCCCCOC(=O)CCCCCCCN(CCCCCCCC(=O)OC(CCCCCCCC)CCCCCCCC)CCCNC(=O)N(C)C [Compound 110, Heptadecan-9-yl 8-((3-(3,3-dimethylureido)propyl)(8-(nonyloxy)-8-oxooctyl)amino)octanoate]	91.5	91.5	73.3	92.39	–	2.30E+08	5.76E+06	1.41E+08	–	–	–	0.19	0.19	1.21E+08	1.2	–
